Patent US20230348564A1, “ANTI-CANCER PROTEINS” (UNICHEM LABORATORIES LTD, priority 2020, published 2023)

Assays:
Glioblastoma (LN-18) = assay: cytotoxicity in Brain Tumor Cell lines by MTT assay; assay type: cell-based, Human; conditions: 0.1 Mm-100 μM, 72 h
Experimental: (§1) The SEQ ID NO. […] Untreated cells were used as control. […] Cells were incubated for 3 h at 37° C.

Neuroblastoma (SH-SY5Y) = assay: as above; assay type: cell-based, Human; conditions: 0.1 Mm-100 μM, 72 h
Experimental: as §1

KB (Cervical cancer) = assay: Xenograft study; assay type: in vivo, mice; conditions: IP
Excerpt: (§2) The Xenograft models used were HT-29, KB, PA-1, MCF-7, PANC-1, T24 and MDA-MB-231. The basic study design for the Xenograft study was as follows: • 1. Cell maintenance and cell suspension preparation • 2. Aseptic injection of tumor cell suspension in the donor animal • 3. Randomization of animals in respective groups • 4. IP dosing of test items in predetermined doses • 5. IP administration of standard • 6. After completion of dosing period. • 7. The Tumor volume recording weekly twice while body weight and clinical signs daily.

[1] = system: MDA-MB-231 (Mammary gland/breast adenocarcinoma); assay: Xenograft study; assay type: in vivo, mice; conditions: MDA-MB-231 xenograft, IP
Excerpt: as §2

[2] = system: PA-1 (Ovary teratocarcinoma); assay: Xenograft study; assay type: in vivo, mice; conditions: PA-1 xenograft, IP
Excerpt: as §2

[3] = system: T24 (Urinary bladder/transitional cell carcinoma); assay: Xenograft study; assay type: in vivo, mice; conditions: IP
Excerpt: as §2

MCF-7 (Breast cancer) = assay: Xenograft study; assay type: in vivo, mice; conditions: MCF-7 xenograft, IP
Excerpt: as §2

Structure (SMILES): COc1cccc2c1C(=O)c1c(O)c3c(c(O)c1C2=O)C[C@@](O)(C(=O)CO)C[C@@H]3O[C@H]1C[C@H](N)[C@H](O)[C@H](C)O1 [Doxorubicin, reference compound]
- % of cytotoxicity (Glioblastoma (LN-18)): 6.5%-47.7%
- % of cytotoxicity (Neuroblastoma (SH-SY5Y)): 21.7%-61.7%
- Maximum Tumor Growth Inhibition (%) (KB (Cervical cancer)): 64.60%
- Tumor Volume (mm^3) (Mean ± SEM) (KB (Cervical cancer)): 616 ± 118 mm^3
- Maximum Tumor Growth Inhibition (%) [1]: 42.12%
- Tumor Volume (mm^3) (Mean ± SEM) [1]: 808.47 ± 178.59 mm^3
- Maximum Tumor Growth Inhibition (%) [2]: 84.48%
- Tumor Volume (mm^3) (Mean ± SEM) [2]: 631 ± 87 mm^3
- Maximum Tumor Growth Inhibition (%) [3]: 59.07%
- Tumor Volume (mm^3) (Mean ± SEM) [3]: 366.32 ± 34.28 mm^3
- Maximum Tumor Growth Inhibition (%) (MCF-7 (Breast cancer)): 65.23%
- Tumor Volume (mm^3) (Mean ± SEM) (MCF-7 (Breast cancer)): 771 ± 65 mm^3
